The test system of data set [1] is microorganisms. Put plainly: Minimum Inhibitory Concentration (MIC) testing. It counts as cell-based.
Data set [2] in a line: Repeated Insult Patch Test. The format is in vivo, human. Here is the method:
Prior to the initiation of the study, each jar containing the test material received a N2 blanket conducted by the Analytical Department at Consumer Product Testing Company.
The upper back between the scapulae served as the treatment area. Approximately 0.2 ml of the test material, or an amount sufficient to cover the contact surface, was applied to the 1″×1″ absorbent pad portion of a clear adhesive dressing. This was then applied to the appropriate treatment site to form a semi-occlusive patch.
Erythema was scored numerically according to the key in TABLE 16. If present, additional Dermal Sequelae were indicated by the appropriate letter code and a numerical value for severity was assigned.
Patches were applied three (3) times per week (e.g., Monday, Wednesday, and Friday) for a total of nine (9) applications. The site was marked to ensure the continuity of patch application. Following supervised removal and scoring of the first Induction patch, participants were instructed to remove all subsequent Induction patches at home, twenty-four hours after application. The evaluation of this site was made again just prior to re-application. If a participant was unable to report for an assigned test day, one (1) makeup day was permitted. This day was added to the Induction period.
Applications were discontinued for the remainder of this test phase, if a moderate (2-level) reaction was observed on this new test site. Applications would also be discontinued if marked (3-level) or severe (4-level) reactivity was noted.
Rest periods consisted of one day following each Tuesday and Thursday removal, and two days following each Saturday removal.
Approximately two (2) weeks after the final Induction patch application, a Challenge patch was applied to a virgin test site adjacent to the original Induction patch site, following the same procedure described for the Induction Phase. The Challenge patch was removed and the site scored at the clinic on Day 1 and Day 3 post-application.

Data set [3] in a line: Technical quality analysis (viscosity, precipitation, color, visual clarity, skin testing).
Experimental: Color changes were noted if there were any color variation resulting from the addition of fragrance ingredient in diluent. For select fragrance ingredients, skin testing was performed. Specifically, in the first round of testing, skin odor evaluation was performed on an interim basis for selective ingredients.
Data set [4] can be described thus: Clarity of fragrance ingredient in bioderived 1,3-BG by visual observation.
Experimental: (§2) Clarity for each of the fragrance ingredients (10% in bioderived 1,3-BG) was determined by visual observations after compounding and blending the fragrance ingredient with bioderived 1,3-BG and identified as clear, slightly haze, cloudy, particles, or separation.
(§3) Clarity for each of the fragrance ingredients (at 1% in bioderived 1,3-BG) was determined by visual observations after compounding and blending the fragrance ingredient with bioderived 1,3-BG and identified as clear, slightly haze, cloudy, particles, or separation.
Data set [5] is described as follows: Vapor pressure of fragrance ingredients. From the text: (§1) Also included is the molecular weight of each of the fragrance ingredients. Not determinable (ND).
A short description of data set [6]: physchem.
Excerpt: The term “fragrance composition” or “composition,” as used herein, represents a composition containing one or more fragrance ingredients described here and formulated with a physiologically acceptable diluent or solvent, used interchangeably here. In a fragrance composition, or composition that has a fragrance, such as a perfume, 20%-40% of the observable liquid may be comprised of a diluent, i.e., the delivery system for scents of the fragrance ingredients. The “log P” value, as used here, indicates whether a substance or fragrance ingredient will be absorbed by humans, animals, plants, or living tissue; diffused or disseminated by water.
as §1

Data set [7] can be described thus: Flash point of fragrance ingredients. It counts as physicochemical.
Excerpt: as §1

A short description of data set [8]: physchem.
Excerpt: as §1
The source holds these as a separate data set.

The nature of data set [9]: Solubility of fragrance ingredients in bioderived 1,3-BG (visual inspection). Conditions: 10% ingredient in bioderived 1,3-BG; excellent, good, moderate, poor, or none.
Experimental: as §2, §3
The mark [10] stands for this setting: 10% ingredient in bioderived 1,3-BG, clear, slightly haze, cloudy, particles, or separation.

Values after ≈ are worked out from the molar mass of the structure shown. Like-named read-outs stand apart in the source and are kept apart here.

For the compound `CC(O)CCO` (centres unmarked) [bioBG, 1,3-butylene glycol], 100 mg/mL (≈ 1110 mM) was the least that counted as inhibitory in [1] (Escherichia coli, E. coli, concentration completely inhibiting microbial growth) (MIC). For the same compound, in data set [1] (compared to 1,3-PG and glycerin), the “inhibition of microbial growth in MIC tests” value is “increased ability to inhibit microbial growth compared to 1,3-Propylene Glycol (1,3-PG) and glycerin”. In addition, the adverse events result in [2] (40% dilution in water) is given as “no adverse events”. Moreover, in data set [2] (bioBG diluted to 40%, human subjects, Challenge patch, Day 1 post-application, supervised removal, one line per subject), the “Virgin Challenge Site Day 1* skin reaction score” value was found to be 0. Besides, the “Virgin Challenge Site Day 3 skin reaction score” value in data set [2] (bioBG diluted to 40%, human subjects, Challenge patch, Day 3 post-application, one line per subject) amounted to 0. The “Induction Phase 2 skin reaction score” value in data set [2] (bioBG diluted to 40%, human subjects, Induction reading 2, one line per subject) was 0. For the same compound, the “Induction Phase 3 skin reaction score” value in data set [2] (bioBG diluted to 40%, human subjects, Induction reading 3, one line per subject) is 0. The “Induction Phase 4 skin reaction score” value in data set [2] (bioBG diluted to 40%, human subjects, Induction reading 4, one line per subject) is 0. The “Induction Phase 5 skin reaction score” value in data set [2] (bioBG diluted to 40%, human subjects, Induction reading 5, one line per subject) was determined as 0. The “Induction Phase 6 skin reaction score” value in [2] (bioBG diluted to 40%, human subjects, Induction reading 6, one line per subject) is on record as 0. The “Induction Phase 7 skin reaction score” value in data set [2] (bioBG diluted to 40%, human subjects, Induction reading 7, one line per subject) is given as 0. In data set [2] (bioBG diluted to 40%, human subjects, Induction reading 8, one line per subject), the “Induction Phase 8 skin reaction score” value stood at 0. For the same compound, in data set [2] (bioBG diluted to 40%, human subjects, Induction reading 9, one line per subject), the “Induction Phase 9 skin reaction score” value is 0. For the same compound, the “Induction Phase Day 1* skin reaction score” value in data set [2] (bioBG diluted to 40%, human subjects, first Induction patch, supervised removal, one line per subject) came out at 0. In addition, the “skin properties when applied to skin” value in data set [2] (up to a concentration of 40%) is “non-irritating, non-sensitizing, and/or non-allergenic”. The “visual clarity compared to DPG, BB, IPM” value in [3] was “exceptional visual clarity with a crystal clear appearance”. Besides, the viscosity entry in data set [3] (observed with the different fragrance ingredients) is given as “very consistent”.

Turning to `CC1=CC(C)C(C=O)CC1` (centres unmarked) [Cyclal C/Triplal], the “Clarity 10%” value in data set [4] (setting [10]) is reported as “Clear”. Besides, in [5], the “Vapor Pressure” value was 0.578 mm hg. Besides, the logP – broadly, the decadic logarithm of the partition coefficient of the neutral form, usually between octanol and water – in data set [6] is 3. Besides, the “Flash Point” value in data set [7] was 66 °C. For the same compound, in data set [8], the “Water Solubility” value was found to be 311.500 µg/mL.

For the compound `CCCCCCCCCCCC=O` [Aldehyde C-12 Lauric], the “Clarity 10%” value in data set [4] (setting [10]) is recorded as “Clear”. In addition, the “Vapor Pressure” value in [5] was determined as 0.034 mm hg. In addition, the logP in data set [6] was found to be 4.989. Also, the “Flash Point” value in data set [7] was determined as 116 °C. Further, the “Water Solubility” value in data set [8] (25° C.) stood at 4.649 µg/mL.

With `CCCCCC1C(=O)CCC1CC(=O)OC` (centres unmarked) [Hedione], the “Clarity 10%” value in data set [4] (setting [10]) is “Clear”. Further, in data set [5], the “Vapor Pressure” value was 0.001 mm hg. For the same compound, the “Solubility 10%” value in data set [9] is on record as “Good”. For the same compound, the logP in data set [6] is 2.653. In addition, the “Flash Point” value in data set [7] worked out at 148 °C. In addition, the “Water Solubility” value in data set [8] (25° C.) turned out to be 91.720 µg/mL.

Take `O=Cc1ccc2c(c1)OCO2` [Heliotropine]: in [4], the “Clarity 1%” value is “Clear” and the “Clarity 10%” value is recorded as “Clear”. Moreover, in [5], the “Vapor Pressure” value is listed as 0.003 mm hg. For the same compound, the logP in data set [6] worked out at 1.05. For the same compound, the “Flash Point” value in data set [7] came to 110 °C. Moreover, in data set [8], the “Water Solubility” value worked out at 3500.000 µg/mL.

`OCCCO` [1,3-PG, 1,3-Propylene Glycol]: the “MIC A. brasiliensis” value in data set [1] (A. brasiliensis, concentration completely inhibiting microbial growth) was more than 350 mg/mL. The “MIC C. albicans” value in data set [1] (C. albicans, concentration completely inhibiting microbial growth) was determined as 250 mg/mL (≈ 3290 mM). In addition, the “MIC E. coli” value in [1] (E. coli, concentration completely inhibiting microbial growth) is 225 mg/mL (≈ 2960 mM). The “MIC P. aeruginosa” value in [1] (P. aeruginosa, concentration completely inhibiting microbial growth) was determined as 200 mg/mL (≈ 2630 mM). Further, in [1] (S. aureus, concentration completely inhibiting microbial growth), the “MIC S. aureus” value was found to be 300 mg/mL (≈ 3940 mM).

Turning to `CCCc1ccc(O)c(OC)c1` [Dihydro Eugenol], the “Clarity 10%” value in data set [4] (setting [10]) was “Clear”. For the same compound, in [5], the “Vapor Pressure” value is reported as 0.006 mm hg. In addition, the “Solubility 10%” value in [9] is reported as “Good”. Besides, the log partition coefficient (logP) in data set [6] was found to be 2.39. Besides, the “Flash Point” value in data set [7] is 100 °C. Also, the “Water Solubility” value in [8] (25° C.) stood at 228.000 µg/mL.

As for Caryophyllene, in data set [4], the “Clarity 1%” value is recorded as “Slightly Haze” and the “Clarity 10%” value is “Cloudy”. Further, in [5], the “Vapor Pressure” value amounted to 0.013 mm hg. In addition, the log partition coefficient (logP) in data set [6] worked out at 6.3. Besides, the “Flash Point” value in [7] stood at 16 °C. Also, the “Water Solubility” value in data set [8] (25° C.) was 0.050 µg/mL.
